Assay results as given in US20250127800A1, “PYRIMIDINE OR PYRIDINE DERIVATIVE AND MEDICINAL USE THEREOF” (SIGNET THERAPEUTICS INC., priority 2021, published 2025).

Columns and labels:
[1] = biological target: T1, FAK (Homo sapiens (Human), UniProt Q05397); experiment: Time-dependent FAK kinase inhibition activity test; format: biochemical
[2] = system: activated YAP (non-p-YAP); experiment: Western Blot of activated YAP in DGC organoid model; format: cell-based; conditions: 48 hours, dose-dependent
Experimental: (§1) Experimental procedures: Organoids were amplified in 6-well plates (7 Matrigel aliquots per well) for 2-3 days prior to evaluation. After passage, 1000 cells were inoculated in 5 μl Matrigel aliquot into each well containing 100 μl 50% L-WRN medium in a 96-well plate. Organoids were cultured for 24 hours, followed by addition of the compounds. Compounds were dissolved in DMSO as stock solution (with a final concentration of […]), which was then diluted with DMSO to 1000× concentration of the testing concentration. Culture medium was added to the stock solution to dilute to the testing concentration. The diluted solution was added to the culture plate. Once compound was added, culture medium was no longer added, and no further compound added. After the organoids were cultured for a specified number of days, the effects of compounds were evaluated by the following three methods, each using DMSO as negative control.
(§2) 2. After cell culture in accordance with the above procedure and culture with compounds for 48 hours, the cells were lysed, and proteins were extracted and tested by Western Blot. After gel imaging, gray values of protein bands were analyzed to investigate the effects of the compounds on phosphorylated FAK and activated YAP in the organoid model. (For detailed methods, please refer to Haisheng Zhang, Cancer Discovery, 2020).

[3] = system: NUGC4 cells; experiment: Cell proliferation inhibition, NUGC4 (CELL TITER-GLO); format: cell-based; conditions: Homo sapiens, NUGC-4, 96 h; NUGC4, 4 days
Experimental: (§3) • a. SNU-668 cells (catalog number: 00668, KCLB) or NUGC4 cells (catalog number: 0834, JCRB) were allowed to grow to 70%-80% confluence, the supernatant of the culture medium was pipetitted off, rinsed once with PBS and then pipetitted off; • b. To a 10 cm dish was added 1 mL of 0.25% trypsin, votexed to homogenity and then place into incubator for digestion for 2-3 min; • c. The culture dish is removed from the incubator added with 2-3 mL complete culture medium to terminate the digestion, pipetitted into a 15 mL centrifuge tube, and then centrifuged in centrifuge at 1000 rpm for 5 minutes; • d. The supernatant was pipetitted off, and the cells were resuspended in 1 mL of complete culture medium, and then counted; • e. 1000 cells were plated into each well of 96-well plate, and then cultured overnight in a cell incubator, 2) Cell Administration with Compounds • a. Compounds to be tested were dissolved and votexed to homogeneity; • b. Each compound was serielly diluted in 1:3 ratio from 1 mM stock solution to 9 gradient concentrations; • c. The plate seeded with cells was taken out from the incubator, pipetitted off culture medium, and then added slowly in each well with 100 μL fresh culture medium by multi-channel pipette. Wells are labeled by corresponding compounds and concentrations, and then gently added with 100 μL compound-containing culture medium along the well wall by multi-channel pipette; • d. After the addition to all wells, the plate was gently shaken to allow homogeneous spread of the compound, and then put back to the incubator, with time recorded;
(§4) 4 days after the addition of compounds, the culture medium was removed and mixed at 100 μL from each well with cell titer-glo testing liquid in 1:1 ratio. The mixture was incubated with shaking at room temperature for 10 min and then counted with Plate reader.

[4] = biological target: T1, FAK; experiment: In vitro enzymatic inhibitory activity, FAK kinase (HTRF KinEASE-TK); conditions: FAK kinase, enzyme pre-incubation 15 minutes at 25° C.
[5] = system: SNU-668 cells; experiment: Cell proliferation inhibition, SNU-668 (CELL TITER-GLO); format: cell-based; conditions: Homo sapiens, SNU668, 96 h; SNU-668, 4 days
Experimental: as §3, §4

[6] = system: FAK (p-FAK 397); experiment: Western Blot of phosphorylated FAK in DGC organoid model; format: cell-based; conditions: 48 hours, dose-dependent
Experimental: as §1, §2

[7] = biological target: YAP (non-p-YAP) (Homo sapiens (Human), UniProt P46937); experiment: Western blot of YAP activity in SNU-668 cell line model; format: cell-based; conditions: SNU668, 24 hours
Experimental: • a. SNU-668 cells (catalog number: 00668, KCLB) were allowed to grow to 70%-80% confluence, the supernatant of the culture medium was pipetitted off, rinsed once with PBS and then pipetitted off; • b. To a 10 cm dish was added 2 mL trypsin, and digested in an incubator for 3-5 min; • c. The culture dish is removed from the incubator added with 5 mL 1640 medium (containing 10% FBS) to terminate the digestion, pipetitted into a 15 mL centrifuge tube, and then centrifuged in centrifuge at 1000 rpm for 5 minutes; • d. The supernatant was pipetitted off, added with 5 mL 1640 medium (containing 10% FBS). the cells were resuspended thoroughly and mix well, then counted; • e. 1.5×10^5 cells were seeded into each well of 12-well plate, and then cultured in a cell incubator for 24 h. 2) Cell Treatment with Compounds • a. Stock solutions of the compounds to be tested (1 mM) were diluted in DMSO, and blown and nixed several times to homogeneity; • b. The plate seeded with cells was taken out from the incubator, gently added in wells with 1 ul 1 mM stocks (1000× diluted) along the well wall, and then gently shaken immediately to homogeneity; • c. After the addition to all wells, the plate was gently shaken to allow homogeneous spread of the compound, and then put back to the incubator, with time recorded; Samples were collected after 24 hours.
• a. […]

[8] = In vivo pharmacokinetic evaluation in SD rats, gavage; conditions: rat, plasma, po, male SD rats, 5 mg/kg
Experimental: Three male SD rats were administered with compounds in a single dose of 5 mg/kg or 3 mg/kg by gavage, and blood samples were collected before administration and at 0.25, 0.5, 1, 2, 4, 6, 8, and 24 h after administration.
Preparation of solutions of compounds to be dosed at 5 mg/kg: 5.5 mg compound (converted based on purity) was accurately weighed and added to 0.55 mL of DMSO. Clear solutions were obtained after stirring and sonication. 0.5 mL of each of the above solutions was added with 1 mL of Solutol, stirred for 1 minute; and then added with 8.5 mL of physiological saline and stirred for 1 minute, to obtain a clear solution at 0.5 mg/mL concentration.
Preparation of a solution of compounds to be dosed at 3 mg/kg: 3.6 mg compound (converted according to purity) was accurately weighed and added to 0.6 mL of DMSO. Clear solutions were obtained after stirring and sonication. 0.5 mL of each of the above solutions was added with 1 mL of Solutol and stirred for 1 minute; and then added with 8.5 mL of physiological saline and stirred for 1 minute, to obtain a clear solution at 0.3 mg/mL concentration.
Rats were administered the formulations prepared in step 2 by gavage at a dose of 10 mL/kg. The rats were fasted overnight before the administration and resumed feeding 4 hours after administration. Throughout the entire experiment, the animals were free to access drinking water.
The plasma concentration was measured using LC-MS/MS method.

T1 sequence (Q05397 whole entry, species assumed): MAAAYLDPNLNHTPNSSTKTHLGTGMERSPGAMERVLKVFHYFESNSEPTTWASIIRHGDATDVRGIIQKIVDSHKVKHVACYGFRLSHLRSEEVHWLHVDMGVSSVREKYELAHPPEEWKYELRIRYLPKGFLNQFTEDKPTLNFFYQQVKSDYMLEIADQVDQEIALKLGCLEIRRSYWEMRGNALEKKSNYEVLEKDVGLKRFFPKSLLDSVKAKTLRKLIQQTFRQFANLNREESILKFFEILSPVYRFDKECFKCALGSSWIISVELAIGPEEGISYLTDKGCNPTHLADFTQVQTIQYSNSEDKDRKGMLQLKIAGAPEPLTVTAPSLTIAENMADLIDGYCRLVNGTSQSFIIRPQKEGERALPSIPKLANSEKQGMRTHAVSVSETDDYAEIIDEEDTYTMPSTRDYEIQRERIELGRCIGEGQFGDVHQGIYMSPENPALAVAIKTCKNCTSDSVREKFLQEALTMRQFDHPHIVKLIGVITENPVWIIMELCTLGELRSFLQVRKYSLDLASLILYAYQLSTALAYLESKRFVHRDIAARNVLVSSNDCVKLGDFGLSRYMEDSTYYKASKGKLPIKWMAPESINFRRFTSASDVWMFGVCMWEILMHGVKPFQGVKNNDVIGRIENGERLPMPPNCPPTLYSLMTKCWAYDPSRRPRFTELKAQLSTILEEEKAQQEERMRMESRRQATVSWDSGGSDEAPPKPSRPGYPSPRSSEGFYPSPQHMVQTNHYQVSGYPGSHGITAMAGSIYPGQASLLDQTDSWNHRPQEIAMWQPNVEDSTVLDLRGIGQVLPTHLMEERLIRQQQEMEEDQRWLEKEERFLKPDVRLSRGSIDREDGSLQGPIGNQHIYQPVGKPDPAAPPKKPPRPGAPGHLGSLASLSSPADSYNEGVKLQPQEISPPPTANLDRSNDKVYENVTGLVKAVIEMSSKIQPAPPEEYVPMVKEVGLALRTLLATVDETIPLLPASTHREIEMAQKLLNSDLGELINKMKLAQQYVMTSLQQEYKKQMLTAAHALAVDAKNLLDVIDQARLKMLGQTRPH

IC50 ([1]; enzyme pre-incubation 60 minutes at 25° C.) [µM] | effective inhibition time on the kinase activity of FAK ([1]; pre-incubation 0, 15 and 60 minutes, compared to defactinib) | IC50 [4] [µM] | IC50 [5] [µM] | inhibition of YAP activity (non-p-YAP) [7] | AUC(0-inf) [8] [nM·h] | AUC(0-t) [8] [nM·h] | Cmax [8] [µM] | Tmax [8] [h] | half-life [8] [h] | SMILES | inhibition of activated YAP (non-p-YAP) [2] | IC50 [3] [µM] | inhibition of phosphorylation of FAK (p-FAK 397) [6]
0.000663 | longer effective inhibition time | 0.00268 | 0.05 |  |  |  |  |  |  | C=CC(=O)N1CCCC(c2cccc(NCc3ccc(Nc4ncc(C(F)(F)F)c(Nc5ccccc5C(=O)NC)n4)cc3)c2)C1 (centres unmarked) [Compound 6, 2-((2-((4-(((3-(1-acryloylpiperidin-3-yl)phenyl)amino)methyl)phenyl)amino)-5-(trifluoromethyl)pyrimidin-4-yl)amino)-N-methylbenzamide] | inhibit the activated YAP (non-p-YAP) | 0.02 | can inhibit the phosphorylation of FAK (p-FAK 397)
 |  |  | 8.4 | no inhibiting effect on YAP activity |  |  |  |  |  | COc1cc(C(=O)NC2CCN(C)CC2)c(F)cc1Nc1ncc(C(F)(F)F)c(Oc2cccc3c2C(=O)N(C)C3)n1 [IN10018, reference compound] |  | 3.5 | 
 |  |  |  | no inhibiting effect on YAP activity | 441 | 424 | 0.0995 | 4 | 1.2 | CNC(=O)c1ccc(Nc2ncc(C(F)(F)F)c(NCc3nccnc3N(C)S(C)(=O)=O)n2)cc1 [Defactinib, reference compound] |  | 1.37 | 
